Patent publication US11382918B2, “Methods for treating Huntington's Disease” (PTC Therapeutics, Inc., priority 2017, dated 2022)
Structures can show the parent of a compound that is named as a salt.

System: Endogenous Huntingtin Protein (HTT)
Test: Endogenous Huntingtin Protein Assay (ELISA-based MSD electrochemiluminescence)
Type: cell-based
Details: Table 1
Procedure: Compounds of Formula (I) were tested using the Meso Scale Discovery (MSD) Assay provided in International Application No. PCT/US2016/066042, filed on Dec. 11, 2016 and claiming priority to U.S. Provisional Application 62/265,652 filed on Dec. 10, 2015, published as International Publication No. WO 2017/100726 on Jun. 15, 2017, the entire contents of which are incorporated herein by reference.
The Endogenous Huntingtin Protein assay used in Example 1 was developed using the ELISA-based MSD electrochemiluminescence assay platform.
Endogenous Huntingtin Protein Assay
Meso Scale Discovery (MSD) 96-well or 384-well plates were coated overnight at 4° C. with MW1 (expanded polyglutamine) or MAB2166 monoclonal antibody (for capture) at a concentration of 1 μg/mL in PBS (30 μL per well). Plates were then washed three times with 300 µL wash buffer (0.05% Tween-20 in PBS) and blocked (100 μL blocking buffer; 5% BSA in PBS) for 4-5 hours at room temperature with rotational shaking and then washed three times with wash buffer.
Samples (25 μL) were transferred to the antibody-coated MSD plate and incubated overnight at 4° C. After removal of the lysates, the plate was washed three times with wash buffer, and 25 μL of #5656S (Cell signaling; rabbit monoclonal) secondary antibody (diluted to 0.25 μg/mL in 0.05% Tween-20 in blocking buffer) was added to each well and incubated with shaking for 1 Hour at room temperature. Following incubation with the secondary antibody, the wells were rinsed with wash buffer after which 25 μL of goat anti-rabbit SULFO TAG secondary detection antibody (required aspect of the MSD system) (diluted to 0.25 μg/mL in 0.05% Tween-20 in blocking buffer) was added to each well and incubated with shaking for 1 hour at room temperature. After rinsing three times with wash buffer, 150 μL of read buffer T with surfactant (MSD) were added to each empty well, and the plate was imaged on a SI 6000 imager (MSD) according to manufacturers' instructions provided for 96- or 384-well plates.

IC50 [µM]	SMILES
3 to 33	CCc1nc(C)cn2nc(-c3cc(=O)n4cc(N5CCN(CCCF)CC5)ccc4n3)cc12 [compound 665, 2-(4-ethyl-6-methylpyrazolo[1,5-a]pyrazin-2-yl)-7-[4-(3-fluoropropyl)piperazin-1-yl]-4H-pyrido[1,2-a]pyrimidin-4-one]
3 to 33	Cc1cn2nc(-c3cc(=O)n4cc(N5CCN(CCO)[C@H](C)C5)cc(C)c4n3)cc2c(C)n1 [compound 673, 2-(4,6-dimethylpyrazolo[1,5-a]pyrazin-2-yl)-7-[(3R)-4-(2-hydroxyethyl)-3-methylpiperazin-1-yl]-9-methyl-4H-pyrido[1,2-a]pyrimidin-4-one]
3 to 33	CCN1CCN(c2ccc3nc(-c4cc5c(C6CC6)nc(C)cn5n4)cc(=O)n3c2)CC1 [compound 685, 2-(4-cyclopropyl-6-methylpyrazolo[1,5-a]pyrazin-2-yl)-7-(4-ethylpiperazin-1-yl)-4H-pyrido[1,2-a]pyrimidin-4-one]
3 to 33	Cc1cn2nc(-c3cc(=O)n4cc(N5C[C@@H](C)N[C@@H](C)C5)ccc4n3)cc2c(C)n1 [compound 131, 7-[(3R,5S)-3,5-dimethylpiperazin-1-yl]-2-(4,6-dimethylpyrazolo[1,5-a]pyrazin-2-yl)-4H-pyrido[1,2-a]pyrimidin-4-one]
0.5 to 1	Cc1cn2cc(-c3cc(=O)n4cc(N5CCN6CCC[C@@H]6C5)ccc4n3)cc(F)c2n1 [compound 272, 2-(8-fluoro-2-methylimidazo[1,2-a]pyridin-6-yl)-7-[(8aR)-hexahydropyrrolo[1,2-a]pyrazin-2(1H)-yl]-4H-pyrido[1,2-a]pyrimidin-4-one]
3 to 33	Cc1cn2nc(-c3cc(=O)n4cc(N5CCN(CCO)CC5)ccc4n3)cc2c(C)n1 [compound 531, 2-(4,6-dimethylpyrazolo[1,5-a]pyrazin-2-yl)-7-[4-(2-hydroxyethyl)piperazin-1-yl]-4H-]
0.5 to 1	Cc1cc(N2CCNCC2)cn2c(=O)cc(-c3ccc4nn(C)cc4c3)nc12 [compound 754, 9-methyl-2-(2-methyl-2H-indazol-5-yl)-7-(piperazin-1-yl)-4H-pyrido[1,2-a]pyrimidin-4-one]
3 to 33	Cc1cn2nc(-c3cc(=O)n4cc(N5CCC(N6CCOCC6)CC5)ccc4n3)cc2c(C)n1 [compound 428, 2-(4,6-dimethylpyrazolo[1,5-a]pyrazin-2-yl)-7-[4-(morpholin-4-yl)piperidin-1-yl]-4H-pyrido[1,2-a]pyrimidin-4-one]
1 to 3	Cc1cc2cc(-c3cc(=O)n4cc(N5CCN[C@@H](C)C5)ccc4n3)ccn2n1 [compound 856, 7-[(3S)-3-methylpiperazin-1-yl]-2-(2-methylpyrazolo[1,5-a]pyridin-5-yl)-4H-pyrido[1,2-a]pyrimidin-4-one hydrochloride (1:2)]
1 to 3	Cc1cn2nc(-c3cc(=O)n4cc(C5CCN(C)CC5)ncc4n3)cc2c(C)n1 [compound 503, 2-(4,6-dimethylpyrazolo[1,5-a]pyrazin-2-yl)-7-(1-methylpiperidin-4-yl)-4H-pyrazino[1,2-a]pyrimidin-4-one]
3 to 33	Cc1cn2cc(-c3ccc4nc(C5CCN(C(C)C)CC5)cc(=O)n4c3)ccc2n1 [compound 461, 7-(2-methylimidazo[1,2-a]pyridin-6-yl)-2-[1-(propan-2-yl)piperidin-4-yl]-4H-pyrido[1,2-a]pyrimidin-4-one]
3 to 33	Cc1cn2nc(-c3cc(=O)n4cc(N5CCNCC5)ccc4n3)cc2c(C2CC2)n1 [compound 683, 2-(4-cyclopropyl-6-methylpyrazolo[1,5-a]pyrazin-2-yl)-7-(piperazin-1-yl)-4H-pyrido[1,2-a]pyrimidin-4-one]
0.1 to 0.5	Cc1cc(-c2cc(=O)n3cc(N4CCNCC4)ccc3n2)cc2cn(C)nc12 [compound 738, 2-(2,7-dimethyl-2H-indazol-5-yl)-7-(piperazin-1-yl)-4H-pyrido[1,2-a]pyrimidin-4-one]
1 to 3	Cn1cc2cc(-c3cc(=O)n4cc(C5CCN(CCO)CC5)ncc4n3)ccc2n1 [compound 569, 7-[1-(2-hydroxyethyl)piperidin-4-yl]-2-(2-methyl-2H-indazol-5-yl)-4H-pyrazino[1,2-a]pyrimidin-4-one]
3 to 33	Cc1cn(-c2cc(=O)n3cc(N4CCNCC4)ccc3n2)cn1 [compound 179, 2-(4-methyl-1H-imidazol-1-yl)-7-(piperazin-1-yl)-4H-pyrido[1,2-a]pyrimidin-4-one]
3 to 33	CCc1nc(C)cn2nc(-c3cc(=O)n4cc(N5CCN[C@@H](C)C5)cc(C)c4n3)cc12 [compound 787, 2-(4-ethyl-6-methylpyrazolo[1,5-a]pyrazin-2-yl)-9-methyl-7-[(3S)-3-methylpiperazin-1-yl]-4H-pyrido[1,2-a]pyrimidin-4-one]
< 0.1	Cc1nc(C2CCNCC2)cn2c(=O)cc(-c3cc(F)c4nn(C)cc4c3)nc12 [compound 869, 2-(7-fluoro-2-methyl-2H-indazol-5-yl)-9-methyl-7-(piperidin-4-yl)-4H-pyrazino[1,2-a]pyrimidin-4-one]
3 to 33	O=c1cc(-c2ccc(OC(F)F)c(F)c2)nc2ccc(N3CCNCC3)cn12 [compound 838, 2-[4-(difluoromethoxy)-3-fluorophenyl]-7-(piperazin-1-yl)-4H-pyrido[1,2-a]pyrimidin-4-one]
< 0.1	CCc1cc(-c2cc(=O)n3cc(C4CCNCC4)ccc3n2)cn2cc(C)nc12 [compound 696, 2-(8-ethyl-2-methylimidazo[1,2-a]pyridin-6-yl)-7-(piperidin-4-yl)-4H-pyrido[1,2-a]pyrimidin-4-one]
< 0.1	CCN1CCC(c2cn3c(=O)cc(-c4cc(F)c5nc(C)cn5c4)nc3c(C)n2)CC1 [compound 877, 7-(1-ethylpiperidin-4-yl)-2-(8-fluoro-2-methylimidazo[1,2-a]pyridin-6-yl)-9-methyl-4H-pyrazino[1,2-a]pyrimidin-4-one]
1 to 3	Cc1cn2cc(-c3cc(=O)n4cc(N5CCNCC5)ccc4n3)ccc2n1 [compound 109, 2-(2-methylimidazo[1,2-a]pyridin-6-yl)-7-(piperazin-1-yl)-4H-pyrido[1,2-a]pyrimidin-4-one]
3 to 33	Cn1cc2cc(-c3cc(=O)n4cc(N5CCN(CCO)CC5)ncc4n3)ccc2n1 [compound 591, 7-[4-(2-hydroxyethyl)piperazin-1-yl]-2-(2-methyl-2H-indazol-5-yl)-4H-pyrazino[1,2-a]pyrimidin-4-one]
3 to 33	Cc1cn2nc(-c3cc(=O)n4cc(N5CCN(C)CC5)ccc4n3)cc2c(C)n1 [compound 170, 2-(4,6-dimethylpyrazolo[1,5-a]pyrazin-2-yl)-7-(4-methylpiperazin-1-yl)-4H-pyrido[1,2-a]pyrimidin-4-one]
3 to 33	CN1CCC(c2ccc3nc(-c4ccc5nn(C)cc5c4)cc(=O)n3c2)CC1 [compound 578, 2-(2-methyl-2H-indazol-5-yl)-7-(1-methylpiperidin-4-yl)-4H-pyrido[1,2-a]pyrimidin-4-one]
1 to 3	Cc1cn2cc(-c3cc(=O)n4cc(N5CCN6CCC[C@H]6C5)ccc4n3)cc(F)c2n1 [compound 271, 2-(8-fluoro-2-methylimidazo[1,2-a]pyridin-6-yl)-7-[(8aS)-hexahydropyrrolo[1,2-a]pyrazin-2(1H)-yl]-4H-pyrido[1,2-a]pyrimidin-4-one]
3 to 33	Cc1cn2nc(-c3cc(=O)n4cc(N5CCN6CCC[C@H]6C5)ccc4n3)cc2c(C)n1 [compound 336, 2-(4,6-dimethylpyrazolo[1,5-a]pyrazin-2-yl)-7-[(8aS)-hexahydropyrrolo[1,2-a]pyrazin-2(1H)-yl]-4H-pyrido[1,2-a]pyrimidin-4-one]
3 to 33	CCc1cn2cc(-c3cc(=O)n4cc(N5CCNCC5)ccc4n3)ccc2n1 [compound 124, 2-(2-ethylimidazo[1,2-a]pyridin-6-yl)-7-(piperazin-1-yl)-4H-pyrido[1,2-a]pyrimidin-4-one]

SMILES	IC50 [µM]
Cc1nc2ccc(-c3cc(=O)n4cc(C5=CCNCC5)ncc4n3)cc2o1 [compound 421, 2-(2-methyl-1,3-benzoxazol-6-yl)-7-(1,2,3,6-tetrahydropyridin-4-yl)-4H-pyrazino[1,2-a]pyrimidin-4-one hydrochloride(1:1)]	3 to 33
Cc1nc2ccc(-c3cc(=O)n4cc(C5=CCN(C)CC5)ncc4n3)cc2o1 [compound 422, 2-(2-methyl-1,3-benzoxazol-6-yl)-7-(1-methyl-1,2,3,6-tetrahydropyridin-4-yl)-4H-pyrazino[1,2-a]pyrimidin-4-one]	0.1 to 0.5
Cn1cc2cc(-c3cc(=O)n4cc(C5=CCNCC5)ccc4n3)ccc2n1 [compound 474, 2-(2-methyl-2H-indazol-5-yl)-7-(1,2,3,6-tetrahydropyridin-4-yl)-4H-pyrido[1,2-a]pyrimidin-4-one]	0.5 to 1
Cc1cn2nc(-c3cc(=O)n4cc(C5=CCNCC5)cc(C)c4n3)cc2c(C)n1 [compound 480, 2-(4,6-dimethylpyrazolo[1,5-a]pyrazin-2-yl)-9-methyl-7-(1,2,3,6-tetrahydropyridin-4-yl)-4H-pyrido[1,2-a]pyrimidin-4-one]	0.1 to 0.5
